Experimental data from the supplement of paper PMC10784567.
± gives the standard deviation of the averaged measurements.

compound: C=C1C[C@H]2C=Nc3cc(OCCCCCOc4cc5c(cc4OC)C(=O)N4CC(=C)C[C@H]4C=N5)c(OC)cc3C(=O)N2C1 [SG2057]; assay: absolute IC50 (cell viability, CellTiter-Glo); higher = less potent; details: treatment time: 3 days
Procedure: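 Large cancer cell line panel screens in 384-well plates. Cells were treated for 3 days with a 9-point dose titration of the free PBD dimer SG2057; viability was read with CellTiter-Glo. Absolute IC50 came from a four-parameter Hill fit normalised to the median of vehicle (DMSO) wells. Several independent screens (projects) per cell line are averaged; values in µM, lowest-dose floor about 1.524e-5 µM.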

| Test System | absolute IC50 |
| --- | --- |
| FA9JTOTERT | 0.435 nM |
| FOX-NY | 0.0773 nM |
| FTC-133 | 0.122 nM |
| FTC-238 | 0.101 nM |
| FU97 | 1.57 nM |
| FaDu | 0.35 nM |
| G28T | 0.984 ± 1 nM |
| G59 | 0.803 ± 0.82 nM |
| G61 | 0.189 ± 0.015 nM |
| G96 | 0.588 nM |
| G111 | 0.208 ± 0.22 nM |
| G121 | 0.799 ± 0.38 nM |
| G124 | 2.54 nM |
| G140 | 1.28 ± 1.7 nM |
| G141 | 0.924 ± 0.65 nM |
| G142 | 0.556 ± 1 nM |
| G-401 | 0.305 ± 0.16 nM |
| G-402 | 0.349 ± 0.14 nM |
| GB-1 | 1.12 nM |
| GCH-nu-YS | 0.242 nM |
| GI-1 | 0.311 nM |
| GOS-3 | 0.597 nM |
| GOTOP3 | 0.217 nM |
| GP5d | 1.93 ± 1.5 nM |
| GR-M | 0.107 ± 0.064 nM |

| Test System | absolute IC50 |
| --- | --- |
| H322T | 2.68 ± 2.1 nM |
| HCA-1 | 4.69 nM |
| HCA-7 | 2.01 ± 1.7 nM |
| HCC44 | 0.762 ± 0.59 nM |
| HCC60 (NCI-H23) | 0.268 nM |
| HCC70 (DODx) | 4.647 ± 0.017 nM |
| HCC78 | 0.114 ± 0.099 nM |
| HCC89 | 4.66 ± 3.1 nM |
| HCC193 | 3.17 ± 2.2 nM |
| HCC364 | 2.86 ± 4.4 nM |
| HCC366 | 4.65 nM |
| HCC515 | 0.134 ± 0.17 nM |
| HCC597 | 6.01 nM |
| HCC827 | 2.16 ± 4.3 nM |
| HCC850 | 0.178 nM |
| HCC880 | 2.86 nM |
| HCC1010 | 0.134 ± 0.12 nM |
| HCC1054 | 0.292 nM |
| HCC1159 | 0.67 nM |
| HCC1171 | 1.01 ± 0.16 nM |
| HCC1187 | 0.601 ± 0.69 nM |
| HCC1263 | 5.65 ± 3.7 nM |
| HCC1319 | 12.8 nM |
| HCC1347 | 2.49 nM |
| HCC1428 | 6.01 ± 0.31 nM |

| Test System | absolute IC50 |
| --- | --- |
| HCC1482 | 0.173 nM |
| HCC1493 | 0.412 ± 0.72 nM |
| HCC1534 | 3.18 ± 2.4 nM |
| HCC1576 | 0.476 nM |
| HCC1623 | 5.3 nM |
| HCC1937 | 4.67 ± 4.4 nM |
| HCC1954 | 1.35 ± 3.1 nM |
| HCC2218 | 1.16 nM |
| HCC2279 | 3.55 ± 6.2 nM |
| HCC2302 | 8.98 nM |
| HCC2450 | 5.43 nM |
| HCC2688 | 0.282 nM |
| HCC2885 | 0.801 nM |
| HCC2935 | 5.29 ± 3.4 nM |
| HCC3335 | 1.59 nM |
| HCC3418 | 0.0218 nM |
| HCC4011 | 4.15 ± 4.6 nM |
| HCC4017 | 0.193 nM |
| HCC4019 | 4.51 ± 2.9 nM |
| HCC-15 | 2.35 ± 3.1 nM |
| HCS-2 | 0.957 nM |
| HCSC-1 | 3.07 nM |
| HCT-8 | 1.43 nM |
| HDQ-P1 | 4.08 ± 4.4 nM |
| HEC-1-A | 3.86 nM |

| Test System | absolute IC50 |
| --- | --- |
| HEC-1-B | 6.12 nM |
| HEC-6 | 0.536 nM |
| HEC-50B | 0.713 nM |
| HEC-59 | 0.472 nM |
| HEC-88nu | 3.07 nM |
| HEC-108 | 1.42 nM |
| HEC-116 | 0.464 nM |
| HEC-151 | 0.352 nM |
| HEC-251 | 1.28 nM |
| HEC-265 | 0.555 nM |
| HEL | 0.067 ± 0.0071 nM |
| HEp-2 | 0.322 nM |
| HGC-27 | 0.406 ± 0.086 nM |
| HL-60 | 5.24 nM |
| HLE | 2.7 nM |
| HLF | 0.503 ± 0.72 nM |
| HM7 | 0.488 ± 0.27 nM |
| HMVII | 0.434 ± 0.73 nM |
| HMY-1 | 1.17 ± 0.94 nM |
| HN | 0.225 nM |
| HNT-34 | 0.076 ± 0.067 nM |
| HOP-18 | 3.89 nM |
| HPAC | 13.2 ± 25 nM |
| HPAF-II | 4.04 ± 0.15 nM |
| HSC-5 | 0.621 nM |

| Test System | absolute IC50 |
| --- | --- |
| HT-3 | 0.212 nM |
| HT-29 | 2.89 ± 2 nM |
| HT-55 | 3.75 ± 2.6 nM |
| HT-115 | 1.59 ± 0.21 nM |
| HT-1080 | 0.569 ± 0.14 nM |
| HUH-7 | 1.82 nM |
| HUP-T3 | 0.645 ± 0.72 nM |
| HUP-T4 | 1.09 ± 1.1 nM |
| HeLa | 1.8 nM |
| Hep 3B2.1-7 | 3.83 ± 2.6 nM |
| Hep G2 | 2.2 nM |
| Hepa 1-6 | 0.286 nM |
| Hs 38.T | 1.36 ± 1.7 nM |
| Hs 294T | 0.469 ± 0.75 nM |
| Hs 578T | 1.51 ± 1.3 nM |
| Hs 683 | 0.626 ± 1 nM |
| Hs 695T | 0.547 ± 0.21 nM |
| Hs 746T | 1.81 ± 3.4 nM |
| Hs 839.T | 6.79 nM |
| Hs 852.T | 0.582 ± 0.063 nM |
| Hs 895.T | 7.53 nM |
| HuCCT1 | 2.63 ± 2.5 nM |
| ID8 | 0.292 nM |
| IGR-1 | 0.75 ± 0.91 nM |
| IGR-37 | 0.339 ± 0.47 nM |

| Test System | absolute IC50 |
| --- | --- |
| IGR-39 | 0.0981 ± 0.02 nM |
| IGROV-1 | 1.14 ± 1.6 nM |
| IM-95 | 2.41 nM |
| IM-95m | 3.43 nM |
| Ishikawa | 0.311 nM |
| JC | 0.463 nM |
| JHH-1 | 2.07 ± 3.1 nM |
| JHH-2 | 4.84 ± 8.1 nM |
| JHH-4 | 0.555 ± 0.54 nM |
| JHH-5 | 0.248 nM |
| JHH-6 | 3.4 nM |
| JHH-7 | 1.94 nM |
| JJ012 | 6.35 nM |
| JJ012 (DODx) | 1.42 nM |
| JJN-3 | 0.816 ± 1.7 nM |
| JVM-2 | 0.374 ± 0.48 nM |
| K-562 | 0.617 ± 0.68 nM |
| KALS-1 | 0.336 nM |
| KARPAS-299 | 0.581 ± 1.1 nM |
| KARPAS-620 | 2.96 nM |
| KARPAS-1106P | 0.158 ± 0.045 nM |
